Results published in patent publication US6410792B1, “Amide derivatives and methods for using the same as selective neuropeptide Y receptor antagonists” (Bayer Corporation, priority 1997, dated 2002).
Like-named read-outs stand apart in the source and are kept apart here.

Key:
[1] = molecular target: T1, Human NPY5 receptor (Homo sapiens, UniProt Q15761); assay: Human NPY5 receptor binding assay ([125I]PYY, membrane protein)
T1 sequence (Q15761 1-445): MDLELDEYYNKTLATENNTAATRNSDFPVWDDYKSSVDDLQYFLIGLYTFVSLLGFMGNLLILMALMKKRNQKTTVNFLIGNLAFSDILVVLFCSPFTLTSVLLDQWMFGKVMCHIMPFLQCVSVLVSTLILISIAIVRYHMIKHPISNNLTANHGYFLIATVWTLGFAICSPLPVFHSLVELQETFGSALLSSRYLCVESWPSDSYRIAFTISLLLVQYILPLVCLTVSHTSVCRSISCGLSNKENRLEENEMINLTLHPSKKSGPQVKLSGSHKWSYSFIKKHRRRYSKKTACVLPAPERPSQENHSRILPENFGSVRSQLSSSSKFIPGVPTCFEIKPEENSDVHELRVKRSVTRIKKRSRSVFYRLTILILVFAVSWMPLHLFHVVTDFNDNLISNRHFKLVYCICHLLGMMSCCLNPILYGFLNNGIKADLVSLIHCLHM
Procedure, shortened: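 Radioligand displacement: 75-100 pM [125I]PYY (porcine), membranes, drug dilution; 2 h, RT, mixing; 25 mM Tris pH 7.4 with 0.1% BSA, 0.5 mg/ml bacitracin. NSB 1 μM PYY. Filtration on PEI-treated GF/C, ice-cold buffer wash, gamma or scintillation counting.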

[2] = molecular target: T2, Rat NPY5 receptor (Rattus norvegicus, UniProt Q63634); assay: Rat NPY5 receptor binding assay ([125I]PYY, membrane protein); settings: [125I]PYY binding, read-out: rNPY5 IC50
T2 sequence (Q63634 1-445): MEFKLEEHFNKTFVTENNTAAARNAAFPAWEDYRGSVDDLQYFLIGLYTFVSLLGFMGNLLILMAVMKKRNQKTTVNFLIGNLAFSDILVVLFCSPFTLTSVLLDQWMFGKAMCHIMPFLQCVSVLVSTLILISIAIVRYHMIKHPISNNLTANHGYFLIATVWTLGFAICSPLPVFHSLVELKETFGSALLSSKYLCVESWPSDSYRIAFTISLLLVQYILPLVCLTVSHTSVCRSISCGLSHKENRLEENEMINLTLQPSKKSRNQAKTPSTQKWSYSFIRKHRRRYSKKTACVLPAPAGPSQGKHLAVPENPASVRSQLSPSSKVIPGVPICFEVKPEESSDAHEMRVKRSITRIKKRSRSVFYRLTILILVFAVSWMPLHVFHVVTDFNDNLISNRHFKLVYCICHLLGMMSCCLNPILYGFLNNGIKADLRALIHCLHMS
Description: C. Human and Rat NPY5 Receptor Binding Assays
Binding assays are performed on GF/C Millipore 96well plates pretreated with 0.02% polyethylenimine. The binding buffer is 25 mM Tris, 120 mM NaCl, 5 mM KCl, 1.2 mM KH2PO4, 2.5 mM CaCl2, 1.2 mM MgSO4, 0.1% BSA and 0.5 mg/ml bacitracin, pH 7.4. Samples consist of membrane protein, 75-100 pM [125I]PYY (porcine, NEN-DuPont) and drug dilution. Nonspecific binding is defined by 1 μM PYY. After a 2 hour incubation at room temperature with constant mixing, the samples are aspirated on a vacuum manifold, and rinsed with ice-cold binding buffer. The amount of radioactivity in each well is quantitated with either gamma counting or liquid scintillation.

[3] = molecular target: T3, Y2 receptor (Homo sapiens, UniProt P49146); assay: Y2 receptor binding assay ([125I]PYY, membrane protein); settings: [125I]PYY binding, membrane protein; read-out: hNPY2 IC50
T3 sequence (P49146 1-381): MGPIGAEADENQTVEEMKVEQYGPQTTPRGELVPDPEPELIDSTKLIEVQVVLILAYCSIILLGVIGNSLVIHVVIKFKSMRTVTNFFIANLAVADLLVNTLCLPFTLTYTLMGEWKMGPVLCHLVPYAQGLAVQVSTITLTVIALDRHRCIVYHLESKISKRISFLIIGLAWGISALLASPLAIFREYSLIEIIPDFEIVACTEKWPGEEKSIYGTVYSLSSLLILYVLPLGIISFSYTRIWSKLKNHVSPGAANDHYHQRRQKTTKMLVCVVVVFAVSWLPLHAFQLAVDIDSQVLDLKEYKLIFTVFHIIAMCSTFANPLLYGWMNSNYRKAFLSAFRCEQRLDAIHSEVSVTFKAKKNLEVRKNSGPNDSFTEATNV
Procedure, shortened: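 Filtration binding with membrane protein and drug dilution, 2 h at room temperature with mixing, radioactivity counted by gamma or scintillation. Y2: 25 pM [125I]PYY in Krebs-Ringer bicarbonate pH 7.4 with 0.01% BSA, nonspecific by 1 μM NPY. Y4/PP1: 50 pM [125I]hPP in HEPES-buffered saline pH 7.4 with protease inhibitors and 0.3% BSA, nonspecific by 1 μM hPP.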

[4] = [125I]PYY binding, read-out: hNPY5 IC50

Compound | IC50 [1, 4] [nM] | IC50 [2] [nM] | IC50 [3] [nM] | IC50 ([1]; hNPY5 IC50, [125I]PYY binding) [nM]
COC(CNCC(=O)Nc1ccc(C(=O)c2ccccc2)cc1)OC [Compound 5, N-(4-Benzoyl-phenyl)-2-(2,2-dimethoxy-ethylamino)-acetamide] | 300 | 300 | – | –
CC1(C)CC(C(N)=O)C(C)(C)N1CC(=O)Nc1ccc(C2CCCCC2)cc1 (stereo not shown) [Compound 114, 1-[(4-Cyclohexyl-phenylcarbamoyl)-methyl] 2,2,5,5-tetramethyl-pyrrolidine-3-carboxylic acid amide] | 2400 | – | > 5000 | –
C=C(C)[C@@H]1CN(CC(=O)Nc2ccc(C3CCCCC3)cc2)[C@H](C(=O)O)[C@@H]1CC(=O)O [Compound 115, (2S,3R,4R)-3-Carboxymethyl-1-[(4-cyclohexyl-phenylcarbamoyl)-methyl]-4-isopropenyl-pyrrolidine-2-carboxylic acid] | – | – | > 5000 | > 10000
COc1ccc(C(=O)C2CCN(CC(=O)Nc3ccc(C4CCCCC4)cc3)CC2)cc1 [Compound 116, N-(4-Cyclohexyl-phenyl)-2-[4-(4-methoxy-benzoyl)-piperidin-1-yl]-acetamide] | 9500 | – | > 5000 | –
O=C(CN1CCC[C@@H]1C(=O)O)Nc1ccc(C2CCCCC2)cc1 [Compound 117, (2R)-1-[(4-Cyclohexyl-phenylcarbamoyl)-methyl]-pyrrolidine-2-carboxylic acid] | 3000 | – | > 5000 | –
O=C(CN1CCCC1CO)Nc1ccc(C(=O)c2ccccc2)cc1 (stereo not shown) [Compound 118, N-(4-Benzoyl-phenyl)-2-(2-hydroxymethyl-pyrrolidin-1-yl)-acetamide] | 2000 | – | > 5000 | –
CC1(C)CC(C(N)=O)C(C)(C)N1CC(=O)Nc1ccc(C(=O)c2ccccc2)cc1 (stereo not shown) [Compound 119, 1-[(4-Benzoyl-phenylcarbamoyl)-methyl]-2,2,5,5-tetramethyl-pyrrolidine-3-carboxylic acid amide] | 3600 | – | > 5000 | –
C=C(C)C1CN(CC(=O)Nc2ccc(C(=O)c3ccccc3)cc2)C(C(=O)O)C1CC(=O)O (stereo not shown) [Compound 120, 1-[(4-Benzoyl-phenylcarbamoyl)-methyl]-3-carboxymethyl-4-isopropenyl-pyrrolidine-2-carboxylic acid] | – | – | > 5000 | > 10000
O=C(CN1CCC(C(=O)c2ccc(F)cc2)CC1)Nc1ccc(C(=O)c2ccccc2)cc1 [Compound 121, N-(4-Benzoyl-phenyl)-2-[4-(4-fluoro-benzoyl)-piperidin-1-yl]-acetamide] | 95 | – | > 5000 | –
COc1ccc(C(=O)C2CCN(CC(=O)Nc3ccc(C(=O)c4ccccc4)cc3)CC2)cc1 [Compound 122, N-(4-Benzoyl-phenyl)-2-[4-(4-methoxy-benzoyl)-piperidin-1-yl]-acetamide] | 9900 | – | > 5000 | –
NC(=O)C1CCCN1CC(=O)Nc1ccc(C(=O)c2ccccc2)cc1 (stereo not shown) [Compound 123, 1-[(4-Benzoyl-phenylcarbamoyl)-methyl]-pyrrolidine-2-carboxylic acid amide] | 910 | – | > 5000 | –
O=C(CN1CCCC1C(O)(c1ccccc1)c1ccccc1)Nc1ccc(C(=O)c2ccccc2)cc1 (stereo not shown) [Compound 125, N-(4-Benzoyl-phenyl)-2-[2-(hydroxy-diphenyl-methyl)-pyrrolidin-1-yl]-acetamide] | 430 | – | > 5000 | –
O=C(CNCc1ccco1)Nc1ccc(C2CCCCC2)cc1 [Compound 160, N-(4-Cyclohexyl-phenyl)-2-[(furan-2-ylmethyl)-amino]-acetamide] | 660 | 450 | – | –
O=C(CNc1c(I)cc(C(=O)O)cc1I)Nc1ccc(C2CCCCC2)cc1 [Compound 165, 4-{[(4-Cyclohexyl-phenylcarbamoyl)-methyl]-amino)-3,5-diiodo-benzoic acid anion] | 1100 | 700 | – | –
O=C(CNCc1ccco1)Nc1ccc(C(=O)c2ccccc2)cc1 [Compound 166, N-(4-Benzoyl-phenyl)-2-[(furan-2-ylmethyl)-amino]-acetamide] | 610 | 730 | – | –
O=C(CNc1c(I)cc(C(=O)O)cc1I)Nc1ccc(C(=O)c2ccccc2)cc1 [Compound 171, 4-{[(4-Benzoyl-phenylcarbamoyl)-methyl]-amino)-3,5-diiodo-benzoic acid] | 530 | 1200 | – | –
O=C(CNC(CO)CO)Nc1ccc(C2CCCCC2)cc1 [Compound 173, N-(4-Cyclohexyl-phenyl)-2-(2-hydroxy-1-hydroxymethyl-ethylamino)-acetamide] | 2000 | 920 | – | –
O=C(CNCC1CC1)Nc1ccc(C2CCCCC2)cc1 [Compound 174, N-(4-Cyclohexyl-phenyl)-2-(cyclopropylmethyl-amino)-acetamide] | 610 | 840 | – | –
O=C(CNCCO)Nc1ccc(C2CCCCC2)cc1 [Compound 176, N-(4-Cyclohexyl-phenyl)-2-(2-hydroxy-ethylamino)-acetamide] | > 10000 | > 10000 | – | –
O=C1C=C(NCC(=O)Nc2ccc(C3CCCCC3)cc2)CCC1 [Compound 179, N-(4-Cyclohexyl-phenyl)-2-(3-oxo-cyclohex-1-enylamino)-acetamide] | > 10000 | > 10000 | – | –
O=C(O)CC(NCC(=O)Nc1ccc(C2CCCCC2)cc1)C(F)(F)F (stereo not shown) [Compound 180, 3-{[(4-Cyclohexyl-phenylcarbamoyl)-methyl]-amino}-4,4,4-trifluoro-butyric acid] | 170 | 120 | – | –
O=C(CNCC1CC1)Nc1ccc(C(=O)c2ccccc2)cc1 [Compound 184, N-(4-Benzoyl-phenyl)-2-(cyclopropylmethyl-amino)-acetamide] | 740 | 690 | – | –
O=C(O)CC(NCC(=O)Nc1ccc(C(=O)c2ccccc2)cc1)C(F)(F)F (stereo not shown) [Compound 190, 3-{[(4-Benzoyl-phenylcarbamoyl)-methyl]-amino}-4,4,4-trifluoro-butyric acid] | 340 | 340 | – | –
CNC1CCN(CC(=O)Nc2ccc(C3CCCCC3)cc2)C1 (stereo not shown) [Compound 193, N-(4-Cyclohexyl-phenyl)-2-(3-methylamino-pyrrolidin-1-yl)-acetamide] | 270 | 250 | – | –
(2R,4R)-1-[(4-Benzoyl-phenylcarbamoyl)-methyl]-4-hydroxy-pyrrolidine-2-carboxylic acid [Compound 101] | 6100 | – | > 5000 | –
(2R,4R)-1-[(4-Cyclohexyl-phenylcarbamoyl)-methyl]-4-hydroxy-pyrrolidine-2-carboxylic acid [Compound 90] | 3800 | – | > 5000 | –
N-(4-Benzoyl-phenyl)-2-(4-benzyl-4-hydroxy-piperidin-1-yl)-acetamide [Compound 111] | 160 | – | > 5000 | –
N-(4-Benzoyl-phenyl)-2-[4-(4-bromo-phenyl)-4-hydroxy-piperidin-1-yl]-acetamide [Compound 89] | 520 | – | > 5000 | –
N-(4-Cyclohexyl-phenyl)-2-[4-hydroxy-4-(3-trifluoromethyl-phenyl)-piperidin-1-yl]-acetamide [Compound 62] | 420 | – | > 5000 | –
